# Patent publication US9072293B2, “Cyclopropenes and method for applying cyclopropenes to agricultural products or crops” (Erum Biotechnologies Inc., priority 2010, dated 2015)
# Values joined by “and” are separate entries in the source; they are usually repeats but may differ in a detail not shown here. Identical values can stand only once.
# Key:
# [1] = Relative chemical stability of cyclopropenes measured by 1H-NMR; assay type: physicochemical; settings: 1H-NMR, CDCl3, stored at −20° C. or room temperature; relative to chain length 1
# Excerpt: A variety of analysis methods can be used to analyze the derivatives of Formula 6, since the absorbance of cyclopropenes containing an aryl group can be easily measured in the UV range. It can be confirmed that the chemical stability of the derivatives increases, when the length of chains to link an aryl ring to a cyclopropene ring is 2 or more. […] It is supposed that the stability of cyclopropenes increase due to the fact that π electrons of aryl groups affect π electrons of cyclopropenes.
# The following Table 1 summarizes the relative chemical stability of cyclopropenes having a chain length of 2, 3, 4 or 5, based on the chemical stability of cyclopropenes having a chain length of 1. In the case of cyclopropene having a chain length of 1, the structure thereof can be confirmed via ^1H-NMR within one hour following synthesis (degraded to a level of 50% or more within one hour at 30° C.). In the case of cyclopropene having a chain length of zero, synthesis thereof was attempted in accordance with the present invention, but was impossible by a conventional method. Meanwhile, in the case of cyclopropenes having a chain length of 2 or more, the structure thereof can be precisely confirmed by ^1H-NMR as well as ^13C-NMR. The stability of these cyclopropenes was measured by ^1H-NMR while NMR cells (CDCl3) were stored at −20° C. or room temperature. In particular, cyclopropenes having chains of 3 or more were so stable that their half-life reached 5 days or longer at −20° C. or lower. In ^1H-NMR analysis, the stability was evaluated by comparing integral values at 4 to 6.5 ppm (1H) and 0.8 to 0.9 ppm (2H), characteristic peaks of 1-alkylcyclopropenes, using a small amount of 1,1,3,3-tetramethylurea (2.80 ppm) as an internal standard. Furthermore, the stability was also qualitatively evaluated by comparing integral value of the peak newly generated adjacent to the peak of the olefin proton of cyclopropene ring, as a 1-alkylcyclopropene compound is decomposed.
# [2] = test system: tomato; experiment: Experimental Example 3: Efficacy test on tomato for other drugs (emulsion and oil-based formulation); assay type: in vivo; settings: individual tomatoes n=4
# Method: At this time, the tops of tomatoes most early turned red, while the bottoms thereof most lately turned red. For this reason, in order to accurately evaluate the difference in reddening, the coloring evaluated was based on the area of red color, rather than the color of tomatoes. […] Accordingly, the grade level is proportional to the rate at which the tomatoes ripened.
# 1.0 mM emulsions and oil-based formulations of four agents, i.e., 1-(2-(4-methoxyphenyl)ethyl)cyclopropene, 1-(3-(4-methoxyphenyl)propyl)cyclopropene, 1-(3-phenoxypropyl)cyclopropene and 1-(4-phenoxybutyl)cyclopropene were prepared in accordance with Examples 1 and 2.
# The tomatoes were screened in the same manner as in Experimental Example 1 and divided into 9 groups (n=4), i.e., a non-treated group and 4 emulsion-type agent groups and 4 oil-based formulation-type agent groups. Tomatoes were treated with the previously prepared agent using a household sprayer such that the surface thereof was saturated. The tomatoes were stood at room temperature (25-30° C.) for 3 days and a reddening level thereof was evaluated based on grades of 0 to 5.
smiles,measurement,setting,value
"C1=C(CCCCOc2ccccc2)C1 [(4-Phenoxybutyl), 1-(4-phenoxybutyl)cyclopropene]","Stability (relative chemical stability, based on cyclopropenes having a chain length of 1)",[1],>>10
same,reddening level (grade 0 to 5),"[2]; 1.0 mM Emulsion, Day 0, room temperature (25-30° C.)",0 (an area in which the surface of tomato was colored in pink was 10% or less) (2×) and 1 (an area in which the surface of tomato was completely colored in red was 10 to 40%) and 2 (an area in which the surface of tomato was completely colored in red was 40 to 70%)
same,reddening level (grade 0 to 5),"[2]; 1.0 mM Emulsion, Day 1, room temperature (25-30° C.)",0 (an area in which the surface of tomato was colored in pink was 10% or less) (2×) and 2 (an area in which the surface of tomato was completely colored in red was 40 to 70%) (2×)
same,reddening level (grade 0 to 5),"[2]; 1.0 mM Emulsion, Day 2, room temperature (25-30° C.)",1 (an area in which the surface of tomato was completely colored in red was 10 to 40%) (2×) and 3 (an area in which the surface of tomato was completely colored in red was 70% or more and the bottom area remained green) (2×)
same,reddening level (grade 0 to 5),"[2]; 1.0 mM Emulsion, Day 3, room temperature (25-30° C.)",2 (an area in which the surface of tomato was completely colored in red was 40 to 70%) (2×) and 4 (2×)
same,reddening level (grade 0 to 5),"[2]; 1.0 mM Oil-based formulation, Day 0, room temperature (25-30° C.)",0 (an area in which the surface of tomato was colored in pink was 10% or less) (2×) and 1 (an area in which the surface of tomato was completely colored in red was 10 to 40%) and 2 (an area in which the surface of tomato was completely colored in red was 40 to 70%)
same,reddening level (grade 0 to 5),"[2]; 1.0 mM Oil-based formulation, Day 1, room temperature (25-30° C.)",0 (an area in which the surface of tomato was colored in pink was 10% or less) (2×) and 1 (an area in which the surface of tomato was completely colored in red was 10 to 40%) and 2 (an area in which the surface of tomato was completely colored in red was 40 to 70%)
same,reddening level (grade 0 to 5),"[2]; 1.0 mM Oil-based formulation, Day 2, room temperature (25-30° C.)",0 (an area in which the surface of tomato was colored in pink was 10% or less) and 1 (an area in which the surface of tomato was completely colored in red was 10 to 40%) and 2 (an area in which the surface of tomato was completely colored in red was 40 to 70%) (2×)
same,reddening level (grade 0 to 5),"[2]; 1.0 mM Oil-based formulation, Day 3, room temperature (25-30° C.)",1 (an area in which the surface of tomato was completely colored in red was 10 to 40%) (2×) and 3 (an area in which the surface of tomato was completely colored in red was 70% or more and the bottom area remained green) (2×)
